From patent US20140186872A1, “BISACODYL AND ITS ANALOGUES AS DRUGS FOR USE IN THE TREATMENT OF CANCER” (CENTRE NATIONAL DE LA RECHERCHE SCIENTIFIQUE- CNRS, priority 2011, published 2014)
Structures can show the parent of a compound that is named as a salt.

Tests used:
[1] = system: quiescent TG1 glioblastoma stem cells; test: ATP-Glo (Cell Titer Glo) cell viability, dose/response, quiescent TG1 cells; format: cell-based, human; conditions: 24 h; for EC50: Homo sapiens, Glioblastoma stem cell, TG1-A Q, experimental protocol of Example 12, ATP-Glo, read-out: EC50 Quiescent TG1; for effect on survival of quiescent TG1 cells (words): own conditioned medium
Procedure: The TG1 cells were put into quiescence by keeping the cells in culture without changing the medium from 9 to 16 days. The state of quiescence was verified by non-incorporation of nucleotides into the DNA of the cells (see example 9).
The quiescent cells were put back in 1 mL of conditioned medium, dissociated mechanically by pipetting up and down 100 times with a P1000 micropipette preset to 400 μl and counted with Trypan Blue, after dilution in conditioned medium, to obtain a final suspension of 8.10^5 cells/mL.
(§1) 50 μl of solution containing cells was deposited per well in a 96-well plate (Greiner #655090).
(§2) The test compounds, in solution of 100% of DMSO were diluted in culture medium: in the absence of DMSO (medium 0% DMSO) or in the presence of 2% of DMSO (medium 2% DMSO) at concentrations of 200 μM, 100 μM, 80 μM, 60 μM, 40 μM, 20 μM, 10 μM and 2 μM. For all these dilutions the final concentration in DMSO was 2% (see Table 1 below; volumes shown make it possible to construct dose/response curves, in triplicate, for 1 compound on a 96-well plate—FIG. 1)
50 μL of solution of compound was added at the concentrations specified above to 50 μL of cells in the plate (FIG. 1) (Final concentration of compounds in contact with the cells: 100 μM, 50 μM, 40 μM, 30 μM, 20 μM, 10 μM, 5 μM, 1 μM (in 1% of final DMSO). Final concentration of positive control: 50 μM in 1% of final DMSO. Final concentration of negative control: 1% final DMSO).
The cells were incubated for 23 to 24 hours at 37° C. in an incubator in the presence of 5% CO2 (under humid atmosphere at 95% provided by a reservoir filled with distilled water).
(§3) The test of cell viability was carried out using the Cell Titer Glo kit (Promega #G7571). After thawing of the Cell Titer Glo reagent (1 Buffer vial+1 Substrate vial per plate) protected from the light, the contents of the Buffer vial were transferred to the Substrate vial. 100 μl of Cell Titer Glo reagent was deposited on the cells treated with the compounds.
(§4) The results, which were given for each well in strokes per second (sps), were converted to percentage cell survival relative to the control 1% of DMSO, which was fixed at 100%.
(§5) The EC50 was determined as the concentration that gives 50% of the response.
(§6) Glioblastoma (WHO grade IV glioma) stem cells (TG1, TG16 and OB1) were derived from tumor samples of 3 patients at Sainte Anne Hospital (Paris, France), as previously described (48) and expanded as neurosphere cultures. In continuously proliferating cultures, neurospheres were mechanically dissociated into a single-cell suspension twice a week with 90% renewal of their culture medium. Quiescent glioblastoma stem cells were obtained by non-renewal of the culture medium for 9-16 days following cell seeding. The non-proliferating state was assessed by decreased ability of the cells to incorporate EdU (5-ethynyl-2′-deoxyuridine) using the Click-iT™ EdU Flow Cytometry Assay Kit (Invitrogen, France) according to the manufacturer's instructions. […]
(§7) Confirmed hit compounds from the primary and secondary screens were purchased from Prestwick Chemical and dissolved in DMSO to obtain 10 mM concentrated stock solutions. Hit compound validation was obtained through dose-response curves on the viability of TG1 glioblastoma stem cells under the same experimental conditions (cell density, treatment duration) as described for the primary and secondary screens. Each compound was tested in triplicate in at least three independent experiments on proliferating and quiescent glioblastoma stem TG1 cells.
(§8) The EC50 value was determined for each compound by fitting the data points according to the following equation: […]
(§9) where y represents the expected response (expressed as a percentage of cell viability), x is the chemical compound concentration, Smax and Smin are the maximum and minimum viability responses recorded, respectively, and n is the Hill coefficient. Curve fitting was performed using the Microsoft Excel Solver component.

[2] = system: proliferating TG1 glioblastoma stem cells; test: ATP-Glo (Cell Titer Glo) cell viability, dose/response, proliferating TG1 cells; format: cell-based, human; conditions: for EC50: Homo sapiens, Glioblastoma stem cell, TG1-A P, experimental protocol of Example 12, ATP-Glo; for EC50 / effect on survival of proliferating TG1 cells: 24 h; for effect on survival of proliferating TG1 cells: own culture medium
Procedure: The TG1 proliferating cells correspond to cells for which medium is renewed regularly, twice weekly.
The proliferating cells were put back in 1 mL of fresh NS34 medium, dissociated mechanically by pipetting up and down 100 times with a P1000 micropipette preset to 400 μl and counted with Trypan Blue, after dilution in fresh NS34 medium, to obtain a final suspension of 6×10^5 cells/mL.
as §1, §2
50 μL of solution of compound was added at the concentrations specified above to 50 μL of cells in the plate (FIG. 1) (Final concentration of compounds in contact with the cells: 100 μM, 50 μM, 40 μM, 30 μM, 20 μM, 10 μM, 5 μM, 1 μM (in 1% of final DMSO). Final concentration of positive control: 50 μM in 1% of final DMSO. Final concentration of negative control: 1% final DMSO). […]
as §3, §4, §5, §6, §7, §8, §9

[3] = system: human fetal neural stem cells (f-NSC cells); test: ATP-Glo cell viability on fetal neural stem cells; format: cell-based

| EC50 [1] [µM] | EC50 [2] [µM] | SMILES | also measured |
| --- | --- | --- | --- |
| 40 ± 10 | 55 ± 8 | CCCC(C)Oc1ccc(C(c2ccc(O)cc2)c2ccccn2)cc1 (stereo not shown) | – |
| – | – | CCCCCCCCNC(C)C(O)c1ccc(SC(C)C)cc1 (stereo not shown) [Suloctidil, reference compound] | effect on survival of quiescent TG1 cells (words) [1]: overlapping cytotoxic activity; effect on survival of proliferating TG1 cells [2]: overlapping cytotoxic activity |
| 1 ± 0.5 | > 100 | CC(=O)Oc1ccc(C(c2ccc(O)cc2)c2ccccn2)cc1 (stereo not shown) | – |
| – | – | O=C(Oc1ccc(C(c2ccc(OC(=O)C(F)(F)F)cc2)c2ccccn2)cc1)C(F)(F)F [Compound 5, (Pyridin-2-ylmethylene)bis(4,1-phenylene)bis(2,2,2-trifluoroacetate)] | effect on survival / toxicity, f-NSC cells [3]: little or no effect; effect on survival of quiescent TG1 cells (words) [1]: effect similar to that described for bisacodyl |
| 9 ± 4 | > 100 | COc1ccc(C(c2ccc(OC(C)=O)cc2)c2ccccn2)cc1 (stereo not shown) [drawing 60] | – |
| 39 ± 2 | > 100 | Oc1ccc(C(c2ccncc2)c2ccc(O)cc2)cc1 | – |
| 22 ± 2 | 25.5 ± 0.6 | CCCCCCCCCOc1ccc(C(c2ccc(OC(C)=O)cc2)c2ccccn2)cc1 (stereo not shown) | – |
| 17.1 ± 6.3 | > 100 | Oc1ccc(C(c2ccccc2)c2ccccn2)cc1 (stereo not shown) | – |
| 57.6 ± 0.7 | > 100 | Oc1ccc(C(c2ccccn2)c2ccccc2O)cc1 (stereo not shown) | – |
| – | – | COc1ccc(C(c2ccc(OC(C)=O)cc2)c2ccccn2)cc1 (stereo not shown) [Compound 7, 4-((4-Methoxyphenyl)(pyridin-2-yl)methyl)phenyl acetate] | effect on survival / toxicity, f-NSC cells [3]: little or no effect; effect on survival of quiescent TG1 cells (words) [1]: effect similar to that described for bisacodyl |
| – | – | OCCN1CCN(CC/C=C2/c3ccccc3Sc3ccc(Cl)cc32)CC1 [Zuclopenthixol HCl, reference compound] | effect on survival of proliferating TG1 cells [2]: more selective effects |
| 14.2 ± 8.8 | 60.8 ± 10.4 | Oc1ccc(C(c2ccccc2)c2ccc(O)cc2)cc1 | – |
| – | – | CC(=O)Oc1ccc(C(c2ccc(O)cc2)c2ccccn2)cc1 (racemic) [Compound 3, 4-((4-Hydroxyphenyl)(pyridin-2-yl)methyl)phenyl acetate] | effect on survival / toxicity, f-NSC cells [3]: little or no effect; effect on survival of quiescent TG1 cells (words) [1]: effect similar to that described for bisacodyl |
| 3 ± 1 | 39 ± 6 | C#CCOc1ccc(C(c2ccc(O)cc2)c2ccccn2)cc1 (stereo not shown) | – |
| 8 ± 6 | > 100 | COc1ccc(C(c2ccc(O)cc2)c2ccccn2)cc1 (stereo not shown) | – |
| 1 ± 0.5 | > 100 | Oc1ccc(C(c2ccc(O)cc2)c2ccccn2)cc1 [drawing 52] | – |
| – | – | COc1ccc(C(c2ccc(O)cc2)c2ccccn2)cc1 (racemic) [Compound 6, 4-((4-Methoxyphenyl)(pyridin-2-yl)methyl)phenol] | effect on survival / toxicity, f-NSC cells [3]: little or no effect; effect on survival of quiescent TG1 cells (words) [1]: effect similar to that described for bisacodyl |
| – | – | C#CCOc1ccc(C(c2ccc(O)cc2)c2ccccn2)cc1 (racemic) [Compound 9, 4-((4-(Prop-2-yn-1-yloxy)phenyl)(pyridin-2-yl)methyl)phenol] | concentration from which a large decrease in survival of NSC cells occurs [3]: ≥ 40 µM; effect on survival of quiescent TG1 cells (words) [1]: active on the quiescent cells; effect on survival of proliferating TG1 cells [2]: also on the proliferating cells; concentrations causing a considerable decrease in survival of proliferating cells ([2]; proliferating TG1 cells): above 40 μM |
| 1.6 ± 0.3 | > 100 | CC(=O)Oc1ccc(C(c2ccc(OC(C)=O)cc2)c2ccccn2)cc1 [drawing 51] | – |
| 5 | > 100 | Oc1ccc(C(c2ccc(O)cc2)c2cncc(Br)c2)cc1 | – |
| 22 ± 3 | 25 ± 4 | CCCCCCCCCOc1ccc(C(c2ccc(O)cc2)c2ccccn2)cc1 (stereo not shown) | – |
| 8 ± 3 | > 100 | Oc1ccc(C(c2ccc(O)cc2)c2cccnc2)cc1 | – |
| 32 ± 2 | > 100 | Nc1ncccc1C(c1ccc(O)cc1)c1ccc(O)cc1 | – |
| 2 ± 1 | > 100 | O=C(Oc1ccc(C(c2ccc(OC(=O)C(F)(F)F)cc2)c2ccccn2)cc1)C(F)(F)F [drawing 57] | – |
| 4 ± 1.4 | > 100 | Oc1ccc(C(c2ccc(Cl)cc2)c2ccccn2)cc1 (stereo not shown) | – |
| 17.3 | > 100 | Oc1ccc(C(c2ccc(C(F)(F)F)cc2)c2ccccn2)cc1 (stereo not shown) | – |

| SMILES | EC50 [1] [µM] | EC50 [2] [µM] | also measured |
| --- | --- | --- | --- |
| CC(=O)Oc1ccc(C(c2ccc(O[Si](C)(C)C(C)(C)C)cc2)c2ccccn2)cc1 (stereo not shown) | 12.1 ± 0.6 | 12 ± 0.1 | – |
| c1ccc(C(c2ccccc2)c2ccccn2)cc1 | 81.9 | > 100 | – |
| CC(C)(C)[Si](C)(C)Oc1ccc(C(c2ccc(O)cc2)c2ccccn2)cc1 (stereo not shown) | 13 ± 3 | 13 ± 5 | – |
| Clc1ccc(C(c2ccc(Cl)cc2)c2ccccn2)cc1 | 35.5 ± 4.5 | 34 ± 3 | – |
